Data from patent publication US12551482B2, “Aurora kinase inhibitors” (The Regents of the University of California, priority 2013, dated 2026).
Where two headings read alike, the source gives them in different places.

Columns and labels:
A431 = experiment: Cancer cell line profiling, Genomics of Drug Sensitivity Project; conditions: Homo sapiens, A-431, read-out: CD532 EC50 (uM)
MEWO = experiment: as above; conditions: Homo sapiens, read-out: CD532 EC50 (uM)
MKN28 = experiment: as above; conditions: Homo sapiens, MKN-28, read-out: CD532 EC50 (uM)
HN = experiment: as above; assay type: cell-based; conditions: read-out: CD532 EC50 (uM), Head & Neck
Hep 3B2.1-7 = experiment: as above; conditions: read-out: CD532 EC50 (uM)
SNU-5 = experiment: as above; conditions: Homo sapiens, SNU-5, read-out: CD532 EC50 (uM)
NBsusSR = experiment: as above; conditions: read-out: CD532 EC50 (uM)
TT = experiment: as above; assay type: cell-based; conditions: Homo sapiens, read-out: CD532 EC50 (uM), Thyroid
RL95-2 = experiment: as above; conditions: Homo sapiens, RL95-2, read-out: CD532 EC50 (uM)
NUGC-3 = experiment: as above
IPC-298 = experiment: as above; conditions: Homo sapiens, IPC-298, read-out: CD532 EC50 (uM)
HSC-3 = experiment: as above; conditions: Homo sapiens, HSC-3, read-out: CD532 EC50 (uM)
MZ2-MEL. = experiment: as above; conditions: read-out: CD532 EC50 (uM)
COLO-829 = experiment: as above; conditions: Homo sapiens, COLO-829, read-out: CD532 EC50 (uM)
HSC-4 = experiment: as above; conditions: Homo sapiens, HSC-4, read-out: CD532 EC50 (uM)
OVKATE = experiment: as above; conditions: read-out: CD532 EC50 (uM)
[1] = system: Kelly MYCN-amplified neuroblastoma cells; experiment: Viability at 72 hrs, CyQUANT assay; assay type: cell-based; conditions: FIG. 1F, read-out: cellular EC50 at 72 hrs
Method: Neuroblastoma cells were treated for the indicated time, trypsinized, washed, stained with Dylight 800 at 0.3 μg/mL (Pierce, 46421), fixed with 1.5% PFA, and permeabilized with 100% methanol. Cells were then stained with antibodies against p-MPM2 (Millipore, 16-155), p-pan-Aurora (Cell Signaling, 2914), MYCN (Thermo, PA5-17403), rabbit IgG (Invitrogen, A10542), or mouse IgG (BioLegend, 405307). Cells were stained with DAPI at 0.3 μg/mL (Invitrogen, D21490) and analyzed on the BD LSR II flow cytometer. For cell cycle analysis, cells were stimulated with EdU for 2 hours prior to harvest, then probed using the Click-iT EdU Flow Cytometry Assay Kit (Invitrogen, C10424). Cells were stained with propidium iodide (BD, 556547) and analyzed on the BD FACSCalibur flow cytometer. Data was gated using Cytobank. For viability studies, neuroblastoma cells were plated in 96-well plates at a density of 1,000 cells/well for SHEP or 4,000 cells/well for Kelly or SK—N-BE2 cells, then incubated with indicated concentrations of drug for 72 hours at 37° C. […] CyQUANT reagent mixture (Invitrogen, C7026) was added to thawed plates, then fluorescence was measured. Alternatively, resazurin (Sigma-Aldrich, R7017) was added directly to wells following drug treatment then incubated for 4 hours at 37° C. prior to measuring fluorescence. Data was analyzed using GraphPad Prism software.

JHH-2 = experiment: Cancer cell line profiling, Genomics of Drug Sensitivity Project; conditions: JHH-2, read-out: CD532 EC50 (uM)
DSH1 = experiment: as above; conditions: read-out: CD532 EC50 (uM)
RPMI 2650 = experiment: as above; conditions: Homo sapiens, RPMI-2650, read-out: CD532 EC50 (uM)
SK-MEL-3 = experiment: as above; conditions: Homo sapiens, SK-MEL3, read-out: CD532 EC50 (uM)
CAL-62 = experiment: as above; conditions: Homo sapiens, CAL-62, read-out: CD532 EC50 (uM)
BICR 78 = experiment: as above; conditions: read-out: CD532 EC50 (uM)
JHH-1 = experiment: as above; conditions: JHH1, read-out: CD532 EC50 (uM)
HGC-27 = experiment: as above; conditions: Homo sapiens, HGC-27, read-out: CD532 EC50 (uM)
M-14 = experiment: as above; conditions: Homo sapiens, M14, read-out: CD532 EC50 (uM)

O=C(Nc1ccc(Nc2nccc(Nc3cc(C4CCCC4)[nH]n3)n2)cc1)Nc1cccc(C(F)(F)F)c1 [CD532, 1-(4-((4-((5-cyclopentyl-1H-pyrazol-3-yl)amino)pyrimidin-2-yl)amino)phenyl)-3-(3-(trifluoromethyl)phenyl)urea]
EC50 (A431): 0.364 µM
EC50 (MEWO): 1.46 µM
EC50 (MKN28): 10.1 µM
EC50 (HN): 1.63 µM
EC50 (Hep 3B2.1-7): 0.877 µM
EC50 (SNU-5): 2.51 µM
EC50 (NBsusSR): 0.382 µM
EC50 (TT): 0.972 µM
EC50 (RL95-2): 0.335 µM
EC50 (NUGC-3; Homo sapiens, NUGC-3, read-out: CD532 EC50 (uM), NUGC-3 cell line, Stomach): 0.968 µM
EC50 (NUGC-3; read-out: CD532 EC50, NUGC-3 cell line, Stomach): 1.15 µM
EC50 (IPC-298): 0.574 µM
EC50 (HSC-3): 2.33 µM
EC50 (MZ2-MEL.): 0.434 µM
EC50 (COLO-829): 0.796 µM
EC50 (HSC-4): 0.885 µM
EC50 (OVKATE): 6 µM
EC50 [1]: 147 nM
EC50 (JHH-2): 0.543 µM
EC50 (DSH1): 0.779 µM
EC50 (RPMI 2650): 0.412 µM
EC50 (SK-MEL-3): 0.567 µM
EC50 (CAL-62): 0.589 µM
EC50 (BICR 78): 12.2 µM
EC50 (JHH-1): 0.295 µM
EC50 (HGC-27): 0.83 µM
EC50 (M-14): 0.972 µM
